Measured values reported in patent US20110152093A1, “Herbicidal compositions comprising flufenacet” (Bayer CropScience AG, priority 2009, published 2011).

Assays:
Assay type in all cases: in vivo
AVEFA (Avena fatua) = experiment: Pre-sowing application action against weeds (7 days prior to sowing), test method 5; conditions: application 7 days prior to sowing; g of AS/ha: (A) 90, (B) 1200, (C) 140, (A)+(B)+(C) 90 + 1200 + 140
Protocol: (§1) In the standard design of the test, seeds of various broad-leaved weed and weed grass biotypes (origins) were sown in a 8-13 cm diameter pot filled with natural soil of a standard field soil (loamy silt; non-sterile) and covered with a covering soil layer of about 1 cm. The pots were then cultivated in a greenhouse (12-16 h of light, temperature day 20-22° C., night 15-18° C.) until the time of application. The pots were treated on a laboratory track sprayer with spray liquors comprising the compositions according to the invention, mixtures of the prior art or components used individually. Application of the active compounds or active compound combinations formulated as WG, WP, EC or otherwise was carried out at the appropriate growth stages of the plants. The application rate for the spray application was 100-600 l of water/ha. After the treatment, the plants were returned to the greenhouses.
(§2) About 3 weeks after the application, the soil action or/and foliar action was assessed visually according to a scale of 0-100% in comparison to an untreated comparative group: 0%=no noticeable effect compared to the untreated comparative group; 100%=full effect compared to the untreated comparative group.
(§3) (notes: the term “seeds” also includes vegetative propagation forms such as, for example, rhizome pieces; abbreviations used: h light=hours of illumination, g of AS/ha=gram of active substance per hectare, l/ha=liter per hectare, S=sensitive, R=resistant) • 1. Pre-emergence action against weeds: seeds of various broad-leaved weed and weed grass biotypes (origins) were sown in a 8-13 cm diameter pot filled with natural soil of a standard field soil (loamy silt; non-sterile) and covered with a covering soil layer of about 1 cm. The pots were then cultivated in a greenhouse (12-16 h of light, temperature day 20-22° C., night 15-18° C.) until the time of application. The pots were treated at the BBCH stage 00-10 of the seeds/plants on a laboratory track sprayer with spray liquors comprising the compositions according to the invention, mixtures or components used individually, as WG, WP, EC or other formulations. The application rate for the spray application was 100-600 l of water/ha. After the treatment, the plants were returned to the greenhouses and, when required, treated with fertilizer and watered. • 2. Post-emergence action against weeds: seeds of various broad-leaved weed and weed grass biotypes (origins) were sown in a 8-13 cm diameter pot filled with natural soil of a standard field soil (loamy silt; non-sterile) and covered with a covering soil layer of about 1 cm. The pots were then cultivated in a greenhouse (12-16 h of light, temperature day 20-22° C., night 15-18° C.) until the time of application. […]

LOLPE (Lolium perenne) [1] = experiment: as above; conditions: application 7 days prior to sowing; g of AS/ha: (A) 90, (B) 1200, (C) 140, (A)+(B)+(C) 90 + 1200 + 140
Protocol: as §1, §2, §3

[2] = system: HORVS (Hordeum vulgare, summer barley); experiment: Selective post-emergence action (crop compatibility), greenhouse trial, test method 4; conditions: PO application; g of AS/ha: (A) 240, (B) 1200, (C) 140, (A)+(B)+(C) 240 + 1200 + 140
Protocol: as §1, §2
(notes: the term “seeds” also includes vegetative propagation forms such as, for example, rhizome pieces; abbreviations used: h light=hours of illumination, g of AS/ha=gram of active substance per hectare, l/ha=liter per hectare, S=sensitive, R=resistant) • 1. Pre-emergence action against weeds: seeds of various broad-leaved weed and weed grass biotypes (origins) were sown in a 8-13 cm diameter pot filled with natural soil of a standard field soil (loamy silt; non-sterile) and covered with a covering soil layer of about 1 cm. The pots were then cultivated in a greenhouse (12-16 h of light, temperature day 20-22° C., night 15-18° C.) until the time of application. […]

[3] = system: HORVS (Hordeum vulgare, summer barley); experiment: PE crop selectivity at different sowing depths, test method 9; conditions: PE application, g of AS/ha: (A) 90, (B) 1200, (C) 140, (A)+(B)+(C) 90 + 1200 + 140
Protocol: as §1
(§4) About 3 weeks after the application, the soil action or/and foliar action was assessed visually according to a scale of 0-100% in comparison to an untreated comparative group: 0%=no noticeable effect compared to the untreated comparative group; 100%=full effect compared to the untreated comparative group. […]

[4] = system: MATCH (Matricaria chamomilla); experiment: PE action under various irrigation conditions, test method 6; conditions: PE application
Protocol: as §1, §2
(§5) (notes: the term “seeds” also includes vegetative propagation forms such as, for example, rhizome pieces; abbreviations used: h light=hours of illumination, g of AS/ha=gram of active substance per hectare, l/ha=liter per hectare, S=sensitive, R=resistant) • 1. Pre-emergence action against weeds: seeds of various broad-leaved weed and weed grass biotypes (origins) were sown in a 8-13 cm diameter pot filled with natural soil of a standard field soil (loamy silt; non-sterile) and covered with a covering soil layer of about 1 cm. The pots were then cultivated in a greenhouse (12-16 h of light, temperature day 20-22° C., night 15-18° C.) until the time of application. The pots were treated at the BBCH stage 00-10 of the seeds/plants on a laboratory track sprayer with spray liquors comprising the compositions according to the invention, mixtures or components used individually, as WG, WP, EC or other formulations. The application rate for the spray application was 100-600 l of water/ha. After the treatment, the plants were returned to the greenhouses and, when required, treated with fertilizer and watered. • 2. Post-emergence action against weeds: seeds of various broad-leaved weed and weed grass biotypes (origins) were sown in a 8-13 cm diameter pot filled with natural soil of a standard field soil (loamy silt; non-sterile) and covered with a covering soil layer of about 1 cm. The pots were then cultivated in a greenhouse (12-16 h of light, temperature day 20-22° C., night 15-18° C.) until the time of application. The pots were treated at various BBCH stages between 11-25 of the seeds/plants, i.e. generally between two to three weeks after the start of the cultivation, on a laboratory track sprayer with spray liquors comprising the compositions according to the invention, mixtures or components used individually, as WG, WP, EC or other formulations. The application rate for the spray application was 100-600 l of water/ha. After the treatment, the plants were returned to the greenhouses and, when required, treated with fertilizer and watered. • 3. Selective pre-emergence action: seeds of various crop species (origins) were sown in a 8-13 cm diameter pot filled with natural soil of a standard field soil (loamy silt; non-sterile) and covered with a covering soil layer of about 1 cm. The pots were then cultivated in a greenhouse (12-16 h of light, temperature day 20-22° C., night 15-18° C.) until the time of application. The pots were treated at the BBCH stage 00-10 of the seeds/plants on a laboratory track sprayer with spray liquors comprising the compositions according to the invention, mixtures or components used individually, as WG, WP, EC or other formulations. The application rate for the spray application was 100-600 l of water/ha. […]

LOLPE (Lolium perenne) [5] = experiment: as above; conditions: PE application, g of AS/ha: (A) 90, (B) 1200, (C) 140, (A)+(B)+(C) 90 + 1200 + 140
Protocol: as §1, §2, §5

[6] = system: LOLSS resistant (Lolium species); experiment: PE action on resistant weed biotypes, test method 8; conditions: PE application; g of AS/ha: (A) 90, (B) 1200, (C) 140, (A)+(B)+(C) 90 + 1200 + 140, iodosulfuron 10
Protocol: as §1, §2, §5

[7] = system: ALOMY resistant (Alopecurus myosuroides); experiment: as above; conditions: PE application; g of AS/ha: (A) 90, (B) 1200, (C) 140, (A)+(B)+(C) 90 + 1200 + 140, iodosulfuron 10
Protocol: as §1, §2, §5

[8] = system: LOLSS sensitive (Lolium species); experiment: as above; conditions: PE application; g of AS/ha: (A) 90, (B) 1200, (C) 140, (A)+(B)+(C) 90 + 1200 + 140, iodosulfuron 10
Protocol: as §1, §2, §5

[9] = system: ALOMY sensitive (Alopecurus myosuroides); experiment: as above; conditions: PE application; g of AS/ha: (A) 90, (B) 1200, (C) 140, (A)+(B)+(C) 90 + 1200 + 140, iodosulfuron 10
Protocol: as §1, §2, §5

[10] = system: HORVS (Hordeum vulgare, summer barley); experiment: Pre-sowing application (7 days prior to sowing), crop compatibility; conditions: g of AS/ha: (A) 90, (B) 1200, (C) 140, (A)+(B)+(C) 90 + 1200 + 140
Protocol: as §1, §4

[11] = system: MATCH (Matricaria chamomilla); experiment: PE action at different sowing depths, test method 9; conditions: PE application, g of AS/ha: (A) 90, (B) 1200, (C) 140, (A)+(B)+(C) 90 + 1200 + 140
Protocol: as §1, §4

**Q.** Which “activity AVEFA” value (AVEFA (Avena fatua)) does the source give for CCC(CC)Nc1c([N+](=O)[O-])cc(C)c(C)c1[N+](=O)[O-] [(B) pendimethalin, N-(1-ethylpropyl)-3,4-dimethyl-2,6-dinitrobenzenamine] here?
**A.** 70%

**Q.** What about the “activity LOLPE” value (LOLPE (Lolium perenne) [1]) of the same compound?
**A.** 0%

**Q.** And the “activity HORVS (crop plant; visual, scale 0-100%)” value [2]?
**A.** 10%

**Q.** And the “activity HORVS 5 mm (crop plant)” value ([3]; sowing depth 5 mm)?
**A.** 30%

**Q.** And the “activity HORVS 20 mm (crop plant)” value ([3]; sowing depth 20 mm)?
**A.** 20%

**Q.** What about the “activity MATCH” value ([4]; irrigation from above, g of AS/ha: (A) 90, (B) 1200, (C) 140, (A)+(B)+(C) 90 + 1200 + 90) of the same compound?
**A.** 30%

**Q.** What about the “activity MATCH” value ([4]; irrigation from below, g of AS/ha: (A) 90, (B) 1200, (C) 140, (A)+(B)+(C) 90 + 1200 + 140) of the same compound?
**A.** 18%

**Q.** What about the “activity LOLPE” value (LOLPE (Lolium perenne) [5]; irrigation from above) of the same compound?
**A.** 75%

**Q.** And the “activity LOLPE” value (LOLPE (Lolium perenne) [5]; irrigation from below)?
**A.** 10%

**Q.** What about the “activity LOLSS resistant” value [6] of the same compound?
**A.** 0%

**Q.** And the “activity ALOMY resistant” value [7]?
**A.** 40%

**Q.** And the “activity LOLSS sensitive” value [8]?
**A.** 78%

**Q.** And the “activity ALOMY sensitive” value [9]?
**A.** 30%

**Q.** And the “activity HORVS (crop plant)” value [10]?
**A.** 30%

**Q.** And the “activity MATCH 5 mm” value ([11]; sowing depth 5 mm)?
**A.** 0%

**Q.** And the “activity MATCH 20 mm” value ([11]; sowing depth 20 mm)?
**A.** 30%
